# Read-outs that look alike come from different tables or passages of the source.
# Assays:
# HEK 293 cells [1] = experiment: Cytotoxicity of 5-FU, MTS proliferation assay; type: cell-based; settings: Homo sapiens
# Procedure: (§1) HEK 293 cells were initially treated with eniluracil (10 μM) for 1 hour. After a washout period ranging from 4-48 hours, cells were treated with [6-^14C]-5-FU (66 μM) for 2 hours at 37 degrees C. Controls were HEK 293 cells treated for 2 hours either with [6-^14C]-5-FU (66 μM) alone, or with eniluracil (10 μM) and [6-^14C]-5-FU (66 μM) co-administered together without preincubation. Reverse phase HPLC with radioactivity detection was utilized to quantify [6-^14C]-5-FU catabolites/anabolites present in cell lysates. In a separate set of experiments cytotoxicity of 5-FU at different eniluracil dose schedules was examined. HEK 293 cells were treated with a range of 5-FU concentrations for 72 hours at 37 degrees C. following 1 hour eniluracil (5 μM) preincubation, without eniluracil, or with eniluracil (5 μM) co-administered without preincubation. Cytotoxicity was assessed by the MTS proliferation assay and the EC50 values for 5-FU calculated.
# [2] = cited from earlier work
# Ward carcinoma tumors = experiment: Antitumor activity in rats bearing Ward carcinoma tumors; type: in vivo; settings: for Ward carcinoma tumor response: once per week for three weeks
# Procedure: Rats were implanted with Ward carcinoma tumors and were treated with one of the following regimens after their tumors grew to 3,000 mg in weight as previously described (Cao et al., Cancer Res 90:1507-1510, 1993). Rats bearing 3,000 mg of tumor mass were dosed at Day 0, Day 7, and Day 14 with the following treatments.
# Group A rats received no treatment. Group B rats were intraperitoneally (ip) dosed with 1 mg/kg eniluracil (time (t)=0) followed by intravenous (iv) 5 mg/kg 5-FU at t=60. Group C rats were dosed ip with 1 mg/kg eniluracil (t=0) followed by 25 mg/kg eniluracil ip at t=55 minutes and by 5 mg/kg 5-FU iv at t=60 minutes. Animals were dosed once per week for three weeks. Eniluracil was also dosed ip at 1 mg/kg to rats in Groups B & C on Days 2 and 3 of each weekly treatment. The treatment for Group C mimicked the clinical trials where high levels of eniluracil were present when 5-FU was dosed.
# [3] = cited from earlier work; remark: listed apart in the source
# [4] = tested on: EpiDerm™ skin model (normal, human-derived epidermal keratinocytes); experiment: EpiDerm skin model dermal irritation, MTT conversion assay (ET50); type: cell-based
# Excerpt: The EpiDerm™ skin model system (MatTek) was used to assess the potential dermal irritation of eniluracil alone or its formulation. This system consists of normal, human-derived epidermal keratinocytes (NHEK) which have been cultured to form a multilayered, highly differentiated model of the human epidermis. […] The EpiDerm™ system is mitotically and metabolically active. Markers of mature epidermis-specific differentiation such as pro-filaggrin, the K1/K10 cytokeratin pair, involucrin, and type I epidermal transglutaminase have been localized in the model. […] The duration of exposure resulting in a 50% decrease in MTT conversion in test article-treated EpiDerm™ cultures, relative to control cultures, was determined (ET50). Eniluracil was prepared and administered to the test system at the three final concentrations of 1000 μM, 500 μM, and 100 μM, and tested at three exposure times of 8, 20, and 24 hours. The DMSO solvent control was tested at exposure times of 8 and 24 hours. The negative control was tested at exposure times of 4 and 24 hours, and the positive control was tested at exposure times of 4 and 8 hours. The results of the trial, presented in Table 1, confirmed that the three doses of eniluracil were well-tolerated by the EpiDerm™ skin model at topical exposures of up to 24 hours. […] Hydrochloric acid in an amount equivalent to the sodium hydroxide was added to neutralize the ointment. The exposure time control was also exposed in duplicate for 4 and 24 hours. Table 2 below summarizes the ET50 results of the EpiDerm™ assay for the test articles and the positive control, using the negative control results to determine the relative viability.
# [5] = Plasma uridine levels after eniluracil, LC-MS; type: in vivo; settings: mice, eniluracil 2, 25 and 100 mg/kg, FIG. 2
# Procedure: While eniluracil inhibition is known to cause an increase in uracil levels due to DPD inhibition, inhibitory effects on other enzymes that anabolize fluoropyrimidines would be expected to quantitatively alter the levels of other anabolites, such as uridine. Eniluracil was administered to mice at 2 mg/kg, 25 mg/kg and 100 mg/kg. Plasma samples were taken at 0 minutes, 15 minutes, 30 minutes, 60 minutes, 2 hours, 24 hours and 48 hours. Uridine levels were determined by LC-MS technology using known techniques and standards were used to validate the assay.
# DPD = target: T1, DPD (Homo sapiens, UniProt Q12882); settings: cancer patients, cited from earlier work
# T1 construct: 24 hours after one dose of eniluracil, the level of DPD was only 3% of the predose level; host or cells: cancer patients
# T1 sequence (Q12882 4-1025): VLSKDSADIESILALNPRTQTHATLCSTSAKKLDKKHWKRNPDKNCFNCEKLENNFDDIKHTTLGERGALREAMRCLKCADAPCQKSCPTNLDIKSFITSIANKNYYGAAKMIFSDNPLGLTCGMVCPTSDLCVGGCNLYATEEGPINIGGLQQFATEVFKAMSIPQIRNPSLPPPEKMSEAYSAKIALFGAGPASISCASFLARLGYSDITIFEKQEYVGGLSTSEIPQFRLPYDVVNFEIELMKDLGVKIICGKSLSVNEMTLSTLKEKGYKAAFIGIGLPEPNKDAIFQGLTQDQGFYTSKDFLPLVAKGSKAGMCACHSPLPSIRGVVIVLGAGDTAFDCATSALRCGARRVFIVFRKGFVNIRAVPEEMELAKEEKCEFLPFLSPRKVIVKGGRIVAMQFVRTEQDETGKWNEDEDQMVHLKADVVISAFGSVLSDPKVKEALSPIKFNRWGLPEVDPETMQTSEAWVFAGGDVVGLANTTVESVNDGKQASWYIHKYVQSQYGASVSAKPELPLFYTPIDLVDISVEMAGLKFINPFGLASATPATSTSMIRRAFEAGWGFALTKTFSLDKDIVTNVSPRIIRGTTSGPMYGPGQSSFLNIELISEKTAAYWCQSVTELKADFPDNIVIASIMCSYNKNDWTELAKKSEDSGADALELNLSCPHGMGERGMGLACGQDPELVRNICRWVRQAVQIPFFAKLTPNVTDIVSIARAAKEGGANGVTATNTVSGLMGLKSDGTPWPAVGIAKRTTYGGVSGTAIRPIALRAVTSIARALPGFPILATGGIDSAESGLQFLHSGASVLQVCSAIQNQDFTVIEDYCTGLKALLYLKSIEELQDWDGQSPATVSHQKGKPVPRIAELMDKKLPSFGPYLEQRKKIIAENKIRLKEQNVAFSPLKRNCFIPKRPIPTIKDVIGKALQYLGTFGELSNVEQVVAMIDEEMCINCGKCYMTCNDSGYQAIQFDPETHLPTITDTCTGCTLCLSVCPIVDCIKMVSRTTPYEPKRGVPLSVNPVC
# HEK 293 cells [6] = experiment: [6-14C]-FUMP anabolite formation from [6-14C]-5-FU in HEK 293 cells, reverse phase HPLC; type: cell-based; settings: eniluracil 10 μM 1 hour, 48 hour washout, then [6-14C]-5-FU 66 μM 2 hours
# Procedure: as §1
structure (smiles),measurement,setting,value
"O=c1[nH]cc(F)c(=O)[nH]1 [5-FU, 5-Fluorouracil]",EC50,"HEK 293 cells [1]; HEK293, 72 h, read-out: EC50 of 5-FU (mean ±SE), 72 hours, 5-FU treatment alone",311 nM
same,EC50,"HEK 293 cells [1]; HEK293, read-out: EC50 of 5-FU (mean ±SE), 72 hours, after 1 hour eniluracil (5 μM) pre-treatment",264 nM
same,EC50,"HEK 293 cells [1]; HEK293, read-out: EC50 of 5-FU (mean ±SE), 72 hours, eniluracil (5 μM) co-administered without preincubation",308 nM
same,Half-life of 5-FU,"[2]; cancer patients, after 3.7 mg/m^2 eniluracil",4.5 h
same,Elimination half-life of 5-FU,"[2]; cancer patients, after one dose of eniluracil",3.5 h
same,Elimination half-life of 5-FU,"[2]; cancer patients, without eniluracil",about 10 minutes
same,Ward carcinoma tumor response,"Ward carcinoma tumors; Group B: eniluracil 1 mg/kg ip t=0, 5-FU 5 mg/kg iv t=60 min",rapidly eliminated
same,Ward carcinoma tumor response,"Ward carcinoma tumors; Group C: eniluracil 1 mg/kg ip t=0, eniluracil 25 mg/kg ip t=55 min, 5-FU 5 mg/kg iv t=60 min",decreased only slightly in size
"C#Cc1c[nH]c(=O)[nH]c1=O [eniluracil, 5-Ethynyluracil]",5-FU-associated hand-foot syndrome toxicity,"[3]; Phase II and Phase III trials, oral eniluracil with 5-FU",abrogated
same,Toxicity in Phase I clinical trials,"[3]; cancer patients, eniluracil eliminating DPD activity",without causing toxicity
same,Antitumor activity versus standard 5-FU regimen without eniluracil,"[3]; two Phase III studies, 28-day eniluracil and 5-FU regimen, colorectal cancer",less antitumor activity
same,Tolerability in the EpiDerm skin model,"[4]; 1000, 500 and 100 μM, topical exposures of up to 24 hours",well-tolerated
same,ET50,[4]; eniluracil 100 uM,>24 h
same,ET50,[4]; eniluracil 500 uM,>24 h
same,ET50,[4]; eniluracil 1000 uM,>24 h
same,Plasma uridine levels,[5],increase in uridine levels
same,"Level of DPD, % of the predose level",DPD; 24 hours after one dose of eniluracil,3%
same,DPD eliminated,"DPD; dose of 0.74 mg/m^2 (about 1 mg total), for prolonged periods",greater than 90%
same,Elimination half-life for eniluracil,[2]; humans,about 3.5 hours
same,Increase in [6-14C]-FUMP formation versus [6-14C]-5-FU treatment alone,HEK 293 cells [6],70%
same,Increase in [6-14C]-FUMP formation versus eniluracil and [6-14C]-5-FU co-administration,HEK 293 cells [6],41%
same,Effect of excess eniluracil on antitumor activity of 5-FU,Ward carcinoma tumors; Group C (extra 25 mg/kg eniluracil at 55 min) versus Group B,greatly diminished

# Reference: patent US20080255168A1, “METHODS FOR ADMINISTERING DPD INHIBITORS IN COMBINATION WITH 5-FU AND 5-FU PRODRUGS” (ADHEREX TECHNOLOGIES, INC., priority 2004, published 2008)
